# Values quoted from earlier work in paper PMC6780087 (Marine Drugs, 2019).
# Assays:
# NaChBac [1] = conditions: ref [54]
# NaChBac [2] = conditions: ref [55]
smiles,measurement,setting,value
CC(C)c1cccc(C(C)C)c1O [propofol],effect on NaChBac,NaChBac [1],inhibits peak currents and promotes activation-linked inactivation in NaChBac
same,binding to NaChBac,NaChBac [2],binding to multiple channel sites
